Where a SMILES comes first, the peptide text is derived from it.

The conditions of test [1]: cited from earlier work; for potency, times as sweet as sugar: commonly accepted potency figures.
For test [2] the following is noted: Kinghorn (2002) page 138, cited from earlier work; for relative quality of taste, as compared to stevioside: stevioside is rated 0.
The subject of test [3] is sensory panel of twelve testers. Kind of test: Sensory panel evaluation of initial sweetness characteristics of sweeteners in water (Example 1). The test is classed as in vivo. To be noted: for initial sweetness perception: FIG. 2/FIG. 4; for initial bitterness perception: FIG. 3/FIG. 5. The procedure:
Sensory evaluations of different sweeteners at various concentrations were performed to provide comparative analysis of organoleptic characteristics of aqueous solutions of rebaudioside D, versus other sweeteners. The rebaudioside D was a stevia extract having a purity of at least 93% by weight rebaudioside D (Reb D). Initial sweetness characteristics of three concentrations of such Reb D in water were determined by a sensory panel of twelve testers. Sensory panels are well known to those of skill in the art, and comprise testers trained to evaluate the organoleptic attributes of comestibles. Typically, sensory panelists have been screened for their taste acuity and extensively trained in the use of standardized vocabulary to describe the appearance, aroma, flavor, mouthfeel and aftertaste of a wide variety of products, as well as scaling techniques to quantify the attributes. The numerical data generated by the sensory panel testers were then analyzed for their statistical significance.
The water employed in the tests of Example 1 comprised purified water as described in detail above, and having a pH of 7.0. The initial sweetness characteristics of 1200 parts per million (ppm) Reb D in water were compared to the initial sweetness characteristics of aqueous solutions of each of 1200 ppm rebaudioside A (Reb A), sucrose, aspartame and sucralose. The rebaudioside A was a stevia extract comprising a purity of 95% by weight rebaudioside A (PureCircle USA Inc., Oak Brook, Ill.). The specific attributes tested by the sensory panel comprised sweetness, thickness, astringency, bitterness, numbing, cooling and licorice.
The initial sweetness characteristics of other concentrations of rebaudioside D in water were also tested and compared to the same concentrations of rebaudioside A in water. […] FIGS. 2 through 5 illustrate the differences in the characteristics of sweetness and bitterness attributes between Reb D and Reb A.

For test [4] the test system is unchanged. Kind of test: Sensory panel evaluation in water, noncarbonated beverage base and carbonated beverage base (Example 2). The test is classed as in vivo. The arrangement: Sweetness / Bitterness: scale not given here. To be noted: for interaction between the sweetener and the three beverage bases (initial sweetness attribute plots): water, noncarbonated and carbonated beverage base. The procedure:
Potential beverage base effects on the initial sweetness perception of rebaudioside D were investigated by performing tests of three concentrations of rebaudioside D (Reb D) in water, in a noncarbonated beverage base, and in a carbonated beverage base, by a sensory panel of twelve testers. The numerical data generated by the sensory panel testers were then analyzed for their statistical significance.
The water employed for the tests of this Example comprised the characteristics as described in Example 1. The noncarbonated beverage base comprised purified water, and citric acid in an amount sufficient to decrease the pH of the noncarbonated beverage base to 3.1. The carbonated beverage base comprised purified water, carbon dioxide, and citric acid in an amount sufficient to decrease the pH of the noncarbonated beverage base to about 3.1. The initial sweetness characteristics of 606 parts per million (ppm) Reb D in water were compared to the initial sweetness characteristics of 606 ppm Reb D in noncarbonated beverage base and 606 ppm Reb D in carbonated beverage base.
The specific attributes tested by the sensory panel comprised sweetness, thickness, astringency, bitterness, numbing, cooling, licorice, burn/tingle and mouthcoat.

Where [5] appears, read: 360 ppm (sucrose 5.4 brix), FIGS. 16-18.
The mark [6] stands for this setting: 606 ppm (sucrose 8.5 brix), FIGS. 13-15.
The mark [7] stands for this setting: CSD (carbonated beverage base), 360 ppm.
Where [8] appears, read: CSD (carbonated beverage base), 606 ppm.
Where [9] appears, read: High Level, 1200 ppm, averaged across all three beverage bases.
[10] abbreviates: Low-Medium Level, 360 ppm, averaged across all three beverage bases.
Setting [11] is: Medium Level, 606 ppm, averaged across all three beverage bases.
Setting [12] is: NCB (noncarbonated beverage base), 360 ppm.
The mark [13] stands for this setting: NCB (noncarbonated beverage base), 606 ppm.

Consider `CC1=CC(=O)NS(=O)(=O)O1` [Acesulfame-K], for which the “potency, times as sweet as sugar” value in test [1] is listed as 200 times as sweet as sugar.

As for `COC(=O)[C@H](Cc1ccccc1)NC(=O)[C@@H](N)CC(=O)O` [Aspertame] (HELM PEPTIDE1{D.F.[CO[*:1]]}$$$$V2.0), the “potency, times as sweet as sugar” value in test [1] is recorded as 200 times as sweet as sugar.

Turning to `C[C@H](CC[C@@H](O[C@@H]1O[C@H](CO[C@@H]2O[C@H](CO)[C@@H](O)[C@H](O)[C@H]2O)[C@@H](O)[C@H](O)[C@H]1O[C@@H]1O[C@H](CO)[C@@H](O)[C@H](O)[C@H]1O)C(C)(C)O)[C@H]1CC[C@@]2(C)[C@@H]3CC=C4[C@@H](CC[C@H](O[C@@H]5O[C@H](CO[C@@H]6O[C@H](CO)[C@@H](O)[C@H](O)[C@H]6O)[C@@H](O)[C@H](O)[C@H]5O)C4(C)C)[C@]3(C)[C@H](O)C[C@]12C` [Mogroside V], the “potency, times as sweet as sugar” value in test [1] is on record as 100-300 times as sweet as sugar.

For `COc1ccc(CCC(=O)c2c(O)cc(O[C@@H]3O[C@H](CO)[C@@H](O)[C@H](O)[C@H]3O[C@@H]3O[C@@H](C)[C@H](O)[C@@H](O)[C@H]3O)cc2O)cc1O` [Neohesperidin dihydrochalcone], the “potency, times as sweet as sugar” value in test [1] is listed as 300 times as sweet as sugar.

In the case of `COC(=O)[C@H](Cc1ccccc1)NC(=O)[C@H](CC(=O)O)NCCC(C)(C)C` [Neotame], the “potency, times as sweet as sugar” value in test [1] is on record as 8,000 times as sweet as sugar.

Regarding `C=C1C[C@@]23CC[C@H]4[C@@](C)(CCC[C@@]4(C)C(=O)O[C@@H]4O[C@H](CO)[C@@H](O)[C@H](O)[C@H]4O)[C@@H]2CC[C@]1(O[C@@H]1O[C@H](CO)[C@@H](O)[C@H](O[C@@H]2O[C@H](CO)[C@@H](O)[C@H](O)[C@H]2O)[C@H]1O[C@@H]1O[C@H](CO)[C@@H](O)[C@H](O)[C@H]1O)C3` [Reb A, rebaudioside A, reference compound], in test [1] (background statement), the “sweetness relative to sucrose” value is recorded as “approximately 200 times sweeter than sucrose”. Besides, the “potency, times as sweet as sugar” value in test [1] is 150-200 times as sweet as sugar. Besides, the “sweetness (value reported by Kinghorn)” value in test [2] is 242. In addition, in test [2], the “relative quality of taste, as compared to stevioside” value was “+2”. In addition, the initial sweetness perception entry was “about 60” in test [3] (360 ppm in water) and “about 68” in test [3] (1200 ppm in water). Besides, the initial bitterness perception result was “about 38” in test [3] (360 ppm in water) and “about 85” in test [3] (1200 ppm in water). The “interaction between the sweetener and the three beverage bases (initial sweetness attribute plots)” value in test [4] (setting [5]) and in test [4] (setting [6]) was “no significant interaction” throughout. Further, the Bitterness in test [4] (setting [7]) is given as 20.5; in test [4] (setting [8]), 28.2; in test [4] (setting [9]) it was 45.1; in test [4] (setting [10]) it was 21.0; in test [4] (setting [11]), 33.4; in test [4] (setting [12]), 24.4. For the same molecule, the Bitterness in test [4] (setting [13]) turned out to be 29.8; in test [4] (Water, 360 ppm), 21.0; in test [4] (Water, 606 ppm) it was 33.4. The Sweetness is given as 50.7 in test [4] (setting [7]); 66.0 in test [4] (setting [8]); 70.6 in test [4] (setting [9]); 52.6 in test [4] (setting [10]); 63.5 in test [4] (setting [11]); 52.3 in test [4] (setting [12]). Further, the Sweetness worked out at 68.5 in test [4] (setting [13]); 52.6 in test [4] (Water, 360 ppm); 63.5 in test [4] (Water, 606 ppm).

Take `O=C1NS(=O)(=O)c2ccccc21` [Saccharin]: the “potency, times as sweet as sugar” value in test [1] is 300 times as sweet as sugar.

In the case of `OC[C@H]1O[C@H](O[C@]2(CCl)O[C@H](CCl)[C@@H](O)[C@@H]2O)[C@H](O)[C@@H](O)[C@H]1Cl` [Sucralose], the “potency, times as sweet as sugar” value in test [1] is given as 600 times as sweet as sugar.

For `C=C1C[C@@]23CC[C@H]4[C@@](C)(CCC[C@@]4(C)C(=O)O[C@@H]4O[C@H](CO)[C@@H](O)[C@H](O)[C@H]4O)[C@@H]2CC[C@]1(O[C@@H]1O[C@H](CO)[C@@H](O)[C@H](O)[C@H]1O[C@@H]1O[C@H](CO)[C@@H](O)[C@H](O)[C@H]1O)C3` [stevioside], the “potency, times as sweet as sugar” value in test [1] is on record as 100-250 times as sweet as sugar. For the same molecule, the “relative quality of taste, as compared to stevioside” value in test [2] is given as 0.

Regarding `OC[C@H]1O[C@@](CO)(O[C@H]2O[C@H](CO)[C@@H](O)[C@H](O)[C@H]2O)[C@@H](O)[C@@H]1O` [sucrose, reference compound], the “interaction between the sweetener and the three beverage bases (initial sweetness attribute plots)” value in test [4] (setting [5]) and in test [4] (setting [6]) was “no significant interaction” in each case.

Values taken from patent US20130071521A1, “REBAUDIOSIDE D SWEETENERS AND FOOD PRODUCTS SWEETENED WITH REBAUDIOSIDE D” (PEPSICO, INC., priority 2007, published 2013).
